Consider nine compounds from US20100292185A1, “BETA-LACTAMASE INHIBITORS” (priority 2009, published 2010).

Where a name gives a salt, the structure may show the parent alone. Where only a bound is given, the exact number is not on record here.

In one test the target is T1, SHV-5 β-lactamase (Klebsiella pneumoniae, UniProt P0A3M1).
T1 construct: expressed as native untagged proteins; made in house; host or cells: E. coli BL21(DE3)
Put plainly: β-lactamase enzyme inhibition assay (nitrocefin substrate), SHV-5. The test is classed as biochemical. Summed up: (§1)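 Native untagged enzymes were expressed in E. coli BL21(DE3) and purified by cation exchange and gel filtration. Compounds (100–0.005 μM in PBS pH 7.0) were preincubated with enzyme for 10 min at 37 °C, then 100 μM nitrocefin (final) was added. IC50 was derived from the maximum hydrolysis rate at 486 nm, read kinetically for 10 min, relative to uninhibited controls.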

The next test deals with T2, CTX-M15 β-lactamase (Escherichia coli, UniProt Q9EXV5).
T2 construct: expressed as native untagged proteins; made in house; host or cells: E. coli BL21(DE3)
Put plainly: β-lactamase enzyme inhibition assay (nitrocefin substrate), CTXM-15. Format: biochemical. Summed up:
as §1

The next test deals with T3, p99 AmpC β-lactamase (Enterobacter cloacae, UniProt P05364).
T3 construct: expressed as native untagged proteins; made in house; host or cells: E. coli BL21(DE3)
As to the kind of experiment: β-lactamase enzyme inhibition assay (nitrocefin substrate), P99 AmpC. The test is classed as biochemical. The note with it: nitrocefin 100 μM, 37° C., PBS pH 7.0; read-out: P99 AmpC IC50. Summed up: as §1

The target in another test is T4, KPC-2 β-lactamase (Klebsiella pneumoniae, UniProt Q9F663).
T4 construct: expressed as native untagged proteins; made in house; host or cells: E. coli BL21(DE3)
As to the kind of experiment: β-lactamase enzyme inhibition assay (nitrocefin substrate), KPC-2. Format: biochemical. In outline: as §1

For test [1], the target named is T5, VIM-2 metallo β-lactamase (Pseudomonas aeruginosa, UniProt Q9K2N0).
T5 construct: made in house
As to the kind of experiment: β-lactamase enzyme inhibition assay (nitrocefin substrate), VIM-2. Format: biochemical. The note with it: nitrocefin 100 μM, 37° C., PBS pH 7.0; read-out: VIM-2 IC50. Summed up:
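VIM-2 was expressed untagged in E. coli BL21(DE3) and purified by two Q sepharose anion-exchange runs plus gel filtration to >90% purity. Compounds at 100–0.005 μM in PBS pH 7.0 were preincubated with enzyme for 10 min at 37° C, then nitrocefin was added at 100 μM final. Hydrolysis was followed kinetically at 486 nm for 10 min; IC50 is the concentration halving the initial rate relative to no-inhibitor wells.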

The target of another test is T6, OXA-23 β-lactamase (Acinetobacter baumannii, UniProt Q9L4P2).
T6 construct: crude β-lactamase extracts were prepared from 20 ml overnight cultures; endogenous in cells; host or cells: Acinetobacter baumannii cells containing OXA-23 (crude freeze-thaw extract)
As to the kind of experiment: β-lactamase enzyme inhibition assay (nitrocefin substrate), OXA-23 crude extract. The note with it: nitrocefin 100 μM, 37° C., PBS pH 7.0; read-out: OXA-23 IC50. The test is classed as biochemical. In outline:
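Crude enzyme came from freeze-thaw extracts of mid-log OXA-23-carrying A. baumannii grown in MH-II broth at 37° C. Inhibitors (100–0.005 μM in PBS pH 7.0) were preincubated with the enzyme for 10 min at 37° C, then 100 μM nitrocefin (final) was added and read kinetically at 486 nm for 10 min. IC50 was taken from initial hydrolysis rates relative to uninhibited controls.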

In test [2] the test system is E. coli expressing the Class A ESBL SHV-5. Put plainly: In vitro antibacterial assay of β-lactamase inhibition (broth microdilution MIC), E. coli SHV-5. Format: cell-based. Conditions: in presence of Ceftazidime 8 μg/ml (Examples 1-56). In outline:
(§2)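 MIC read by eye after 16-20 h at 37° C. Compounds were titrated 2-fold from 8 μg/mL down to 0.015 μg/mL (final) in CAMHB with a β-lactam antibiotic, and wells were inoculated per CLSI with strains grown 3-5 h under 50 μg/mL ampicillin.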

Test [3] deals with K. pneumoniae expressing the Class A Extended Spectrum Beta-Lactamase (ESBL) CTX-M-15. Put plainly: In vitro antibacterial assay of β-lactamase inhibition (broth microdilution MIC), K. pneumoniae CTX-M-15. Conditions: in presence of Ceftazidime 8 μg/ml (Examples 1-56). The test is classed as cell-based. In outline: as §2
Test [4] relates to E. cloacae expressing the Class C P99+. As to the kind of experiment: In vitro antibacterial assay of β-lactamase inhibition (broth microdilution MIC), E. cloacae P99+. The test is classed as cell-based. The note with it: in presence of Ceftazidime 8 μg/ml (Examples 1-56). In outline:
as §2

The subject of test [5] is K. pneumoniae expressing the Class A carbapenemase KPC-2. Put plainly: microbe, parasite or virus in culture. The test is classed as cell-based. Conditions: in presence of Ceftazidime 8 μg/ml (Examples 1-56). In outline: as §2
Test [6] relates to P. aeruginosa expressing the Class B metallo β-lactamase VIM-2. Put plainly: In vitro antibacterial assay of β-lactamase inhibition (broth microdilution MIC), P. aeruginosa VIM-2. Format: cell-based. The note with it: in presence of Ceftazidime 16 μg/mL (Examples 1-56). In outline:
as §2

T2 sequence (Q9EXV5 entry or part of it): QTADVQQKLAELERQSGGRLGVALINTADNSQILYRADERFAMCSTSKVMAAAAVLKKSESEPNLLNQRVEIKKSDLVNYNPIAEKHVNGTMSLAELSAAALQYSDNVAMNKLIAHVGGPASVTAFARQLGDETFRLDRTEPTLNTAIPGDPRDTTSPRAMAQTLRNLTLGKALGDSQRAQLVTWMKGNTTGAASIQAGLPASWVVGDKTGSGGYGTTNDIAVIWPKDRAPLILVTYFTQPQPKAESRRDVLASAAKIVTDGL
T4 sequence (Q9F663 25-293 limits assumed): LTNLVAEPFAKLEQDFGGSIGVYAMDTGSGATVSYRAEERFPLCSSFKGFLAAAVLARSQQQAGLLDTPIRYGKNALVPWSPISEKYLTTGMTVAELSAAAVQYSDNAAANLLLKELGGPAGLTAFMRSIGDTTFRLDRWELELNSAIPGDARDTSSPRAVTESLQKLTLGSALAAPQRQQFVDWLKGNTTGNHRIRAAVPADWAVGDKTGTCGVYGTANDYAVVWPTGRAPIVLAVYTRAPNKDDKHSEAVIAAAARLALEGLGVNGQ
T6 sequence (Q9L4P2 18-273): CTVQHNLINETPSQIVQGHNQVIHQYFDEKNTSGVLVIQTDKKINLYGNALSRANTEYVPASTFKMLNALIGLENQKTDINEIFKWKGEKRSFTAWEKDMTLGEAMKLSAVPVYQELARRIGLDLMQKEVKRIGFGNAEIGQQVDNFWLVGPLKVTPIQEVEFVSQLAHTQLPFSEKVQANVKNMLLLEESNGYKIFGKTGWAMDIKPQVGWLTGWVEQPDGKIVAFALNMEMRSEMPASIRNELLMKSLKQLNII
T3 sequence (P05364 21-381): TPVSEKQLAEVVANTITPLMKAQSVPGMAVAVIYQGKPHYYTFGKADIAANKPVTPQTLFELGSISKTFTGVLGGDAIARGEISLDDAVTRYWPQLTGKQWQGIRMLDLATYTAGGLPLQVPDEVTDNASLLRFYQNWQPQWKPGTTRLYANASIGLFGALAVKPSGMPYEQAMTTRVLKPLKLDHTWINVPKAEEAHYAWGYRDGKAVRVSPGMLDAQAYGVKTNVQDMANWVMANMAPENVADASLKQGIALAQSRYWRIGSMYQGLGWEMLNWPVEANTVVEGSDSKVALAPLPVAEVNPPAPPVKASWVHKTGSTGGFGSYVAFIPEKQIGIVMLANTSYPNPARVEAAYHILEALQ
T1 sequence (P0A3M1 22-286): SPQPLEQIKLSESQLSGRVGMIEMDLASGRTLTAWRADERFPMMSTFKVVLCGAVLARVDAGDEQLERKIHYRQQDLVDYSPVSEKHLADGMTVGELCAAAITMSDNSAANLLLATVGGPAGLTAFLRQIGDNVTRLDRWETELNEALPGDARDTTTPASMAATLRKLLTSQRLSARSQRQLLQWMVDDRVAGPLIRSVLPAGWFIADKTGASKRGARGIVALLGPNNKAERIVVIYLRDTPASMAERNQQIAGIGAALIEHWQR

Take `Cl.NCCNCc1ccc(C(=O)N[C@@H](Cc2cccc(C(=O)O)c2O)B(O)O)cc1` [Example 15, (1R)-[4-(2-amino-ethylamino)-methyl]-benzoylamino-(3-carboxy-2-hydroxy)benzyl-methyl boronic acid hydrochloride]: the IC50 at SHV-5 β-lactamase is > 1000 nM; at CTX-M15 β-lactamase it was 7 nM; at p99 AmpC β-lactamase, 5 nM; at KPC-2 β-lactamase, 18 nM; in [1], 47 nM; at OXA-23 β-lactamase, > 1000 nM. Moreover, the “MIC of example compound, E. coli SHV-5” value in test [2] is 4 µg/mL. The “MIC of example compound, K. pneumoniae CTX-M-15” value (“MIC … K. pneumoniae CTX-M-15” below) in test [3] was determined as 0.25 µg/mL. Also, the “MIC of example compound, E. cloacae P99+” value in test [4] turned out to be 4 µg/mL. For the same compound, in test [5], the “MIC of example compound, K. pneumoniae KPC-2” value (from here on “MIC … K. pneumoniae KPC-2”) is 0.01 µg/mL. In [6], the “MIC of example compound, P. aeruginosa VIM-2” value (“MIC … P. aeruginosa VIM-2” below) is >8 µg/mL.
`NCCNCc1cccc(C(=O)N[C@@H](Cc2cccc(C(=O)O)c2O)B(O)O)c1` [Example 18, (1R)-[3-{(2-aminoethylamino)-methyl}-benzoylamino]-(3-carboxy-2-hydroxy)benzyl-methylboronic acid formate]: the half-inhibitory concentration (IC50) is 257 nM against SHV-5 β-lactamase; 1 nM against CTX-M15 β-lactamase; 0.3 nM on p99 AmpC β-lactamase; 14 nM on KPC-2 β-lactamase; 99 nM in test [1]; 41 nM at OXA-23 β-lactamase. In addition, the “MIC of example compound, E. coli SHV-5” value in test [2] is 8 µg/mL. The “MIC … K. pneumoniae CTX-M-15” value in [3] turned out to be 0.5 µg/mL. In addition, the “MIC of example compound, E. cloacae P99+” value in test [4] stood at 0.25 µg/mL. For the same compound, the “MIC … K. pneumoniae KPC-2” value in test [5] came to 0.06 µg/mL. For the same compound, in test [6], the “MIC … P. aeruginosa VIM-2” value was >8 µg/mL.
Consider `O=C(N[C@@H](Cc1cccc(C(=O)O)c1O)B(O)O)c1cccc(CNCc2cccnc2)c1` [Example 19, (1R)-(3-{[(pyridin-3-ylmethyl)amino]methyl}-benzoylamino)-(3-carboxy-2-hydroxy)benzyl-methylboronic acid formate], for which the half-maximal inhibitory concentration (IC50) was found to be 54 nM at SHV-5 β-lactamase; 1 nM against CTX-M15 β-lactamase; 0.2 nM on p99 AmpC β-lactamase; 6 nM at KPC-2 β-lactamase; 510 nM in test [1]; 19 nM at OXA-23 β-lactamase. Moreover, the “MIC of example compound, E. coli SHV-5” value in test [2] is 8 µg/mL. Besides, in [3], the “MIC … K. pneumoniae CTX-M-15” value amounted to 2 µg/mL. For the same compound, the “MIC of example compound, E. cloacae P99+” value in test [4] is 2 µg/mL. Also, the “MIC … K. pneumoniae KPC-2” value in test [5] was 0.12 µg/mL. Moreover, in test [6], the “MIC … P. aeruginosa VIM-2” value was >8 µg/mL.
Turning to `O=C(N[C@@H](Cc1cccc(C(=O)O)c1O)B(O)O)c1cccc(CN2CCNCC2)c1` [Example 20, (1R)-(3-piperazin-1-ylmethyl-benzoylamino-(3-carboxy-2-hydroxy)benzyl-methylboronic acid formate], the IC50 against SHV-5 β-lactamase was 42 nM; on CTX-M15 β-lactamase, 20 nM; at p99 AmpC β-lactamase, 0.3 nM; against KPC-2 β-lactamase it was 9 nM; in test [1], 179 nM; at OXA-23 β-lactamase, 22 nM. In addition, the “MIC of example compound, E. coli SHV-5” value in test [2] was 4 µg/mL. The “MIC … K. pneumoniae CTX-M-15” value in test [3] was 1 µg/mL. The “MIC of example compound, E. cloacae P99+” value in test [4] was found to be 2 µg/mL. Moreover, the “MIC … K. pneumoniae KPC-2” value in test [5] came to 0.03 µg/mL. For the same compound, the “MIC … P. aeruginosa VIM-2” value in test [6] is >8 µg/mL.
In the case of `CNCc1cccc(C(=O)N[C@@H](Cc2cccc(C(=O)O)c2O)B(O)O)c1` [Example 21, (1R)-(3-methylaminomethyl-benzoylamino)-(3-carboxy-2-hydroxy)benzyl-methylboronic acid formate], the IC50 against SHV-5 β-lactamase is 830 nM; against CTX-M15 β-lactamase, 3 nM; at p99 AmpC β-lactamase it was 2 nM; at KPC-2 β-lactamase it was 19 nM; in [1] it was 142 nM; on OXA-23 β-lactamase it was 33 nM. The “MIC of example compound, E. coli SHV-5” value in test [2] was 4 µg/mL. Moreover, the “MIC … K. pneumoniae CTX-M-15” value in test [3] was found to be 1 µg/mL. In test [4], the “MIC of example compound, E. cloacae P99+” value came to 0.25 µg/mL. The “MIC … K. pneumoniae KPC-2” value in test [5] was 0.01 µg/mL. For the same compound, the “MIC … P. aeruginosa VIM-2” value in test [6] is >8 µg/mL.
Turning to `Cc1cc(NCc2cccc(C(=O)N[C@@H](Cc3cccc(C(=O)O)c3O)B(O)O)c2)no1` [Example 28, (1R)-[3-{(5-methyl-isoxazol-3-ylamino)-methyl}-benzoylamino]-(3-carboxy-2hydroxy)benzyl-methylboronic acid formate], the IC50 on SHV-5 β-lactamase was found to be 15 nM; against CTX-M15 β-lactamase it was 0.7 nM; at p99 AmpC β-lactamase it was 0.2 nM; against KPC-2 β-lactamase it was 4 nM; in test [1], 304 nM; at OXA-23 β-lactamase, 9 nM. In addition, the “MIC of example compound, E. coli SHV-5” value in [2] stood at 8 µg/mL. The “MIC … K. pneumoniae CTX-M-15” value in test [3] stood at 4 µg/mL. Also, in [4], the “MIC of example compound, E. cloacae P99+” value is 2 µg/mL. Moreover, the “MIC … K. pneumoniae KPC-2” value in test [5] is 2 µg/mL. Also, the “MIC … P. aeruginosa VIM-2” value in test [6] is >8 µg/mL.
Regarding `NCc1cccc(CC(=O)N[C@@H](Cc2cccc(C(=O)O)c2O)B(O)O)c1` [Example 29, (1R)-[2-(3-aminomethyl-phenyl)-acetylamino]-(3-carboxy-2hydroxy)benzyl-methylboronic acid formate], the half-inhibitory concentration (IC50) at SHV-5 β-lactamase stood at 5 nM; at CTX-M15 β-lactamase, 9 nM; on p99 AmpC β-lactamase it was 6 nM; at KPC-2 β-lactamase, 16 nM; in test [1], 882 nM; at OXA-23 β-lactamase it was 591 nM. In [2], the “MIC of example compound, E. coli SHV-5” value was found to be 0.5 µg/mL. Also, the “MIC … K. pneumoniae CTX-M-15” value in test [3] was 0.12 µg/mL. For the same compound, the “MIC of example compound, E. cloacae P99+” value in test [4] is 0.12 µg/mL. Besides, the “MIC … K. pneumoniae KPC-2” value in test [5] worked out at 0.03 µg/mL. In addition, in test [6], the “MIC … P. aeruginosa VIM-2” value is >8 µg/mL.
For `NCc1ccc(CC(=O)N[C@@H](Cc2cccc(C(=O)O)c2O)B(O)O)cc1` [Example 30, (1R)-[2-(4-aminomethyl-phenyl)-acetylamino]-(3-carboxy-2hydroxy)benzyl-methylboronic acid formate], the IC50 amounted to 3 nM on SHV-5 β-lactamase; 7 nM on CTX-M15 β-lactamase; 12 nM at p99 AmpC β-lactamase; 9 nM against KPC-2 β-lactamase; 271 nM in [1]; 252 nM at OXA-23 β-lactamase. The “MIC of example compound, E. coli SHV-5” value in test [2] worked out at 0.5 µg/mL. Besides, the “MIC … K. pneumoniae CTX-M-15” value in test [3] was 0.06 µg/mL. Also, the “MIC of example compound, E. cloacae P99+” value in test [4] turned out to be 0.12 µg/mL. Besides, the “MIC … K. pneumoniae KPC-2” value in test [5] worked out at 0.01 µg/mL. For the same compound, the “MIC … P. aeruginosa VIM-2” value in test [6] is >8 µg/mL.
As for `O=C(N[C@@H](Cc1cccc(C(=O)O)c1O)B(O)O)c1cccc(CNc2nccs2)c1` [Example 31, (1R)-[3-(thiazol-2-ylaminomethyl)-benzoylamino]-(3-carboxy-2-hydroxy)benzyl-methylboronic acid], the IC50 against SHV-5 β-lactamase amounted to 13 nM; at CTX-M15 β-lactamase it was 0.5 nM; at p99 AmpC β-lactamase, 0.6 nM; against KPC-2 β-lactamase it was 3 nM; in test [1] it was 295 nM; on OXA-23 β-lactamase, 10 nM. In addition, the “MIC of example compound, E. coli SHV-5” value in [2] is 8 µg/mL. In test [3], the “MIC … K. pneumoniae CTX-M-15” value came out at 4 µg/mL. Moreover, the “MIC of example compound, E. cloacae P99+” value in [4] is 2 µg/mL. For the same compound, the “MIC … K. pneumoniae KPC-2” value in test [5] turned out to be 0.25 µg/mL. In addition, in [6], the “MIC … P. aeruginosa VIM-2” value is >8 µg/mL.
